Patent US20210255193A1, “LYSINE REACTIVE PROBES AND USES THEREOF” (The Scripps Research Institute, priority 2017, published 2021)

Assays:
Test in all cases: competitive isoTOP-ABPP
Assay type in all cases: binding
PLIN3 Perilipin-3 = biological target: T1, PLIN3 Perilipin-3 (Homo sapiens, UniProt O60664); design: key to isoTOP-ABPP reactivity ratio at lysine O60664_K257 / isoTOP-ABPP reactivity ratio at lysine O60664_K140: R = MS1 peak area ratio, DMSO (heavy) / compound-treated (light); capped at 20; conditions: 50 uM, 231 sol, in vitro
T1 construct: isoTOP-ABPP experiments performed in cell lysates (in vitro); endogenous in cells; host or cells: MDA-MB-231 soluble lysate
T1 sequence (O60664 1-434): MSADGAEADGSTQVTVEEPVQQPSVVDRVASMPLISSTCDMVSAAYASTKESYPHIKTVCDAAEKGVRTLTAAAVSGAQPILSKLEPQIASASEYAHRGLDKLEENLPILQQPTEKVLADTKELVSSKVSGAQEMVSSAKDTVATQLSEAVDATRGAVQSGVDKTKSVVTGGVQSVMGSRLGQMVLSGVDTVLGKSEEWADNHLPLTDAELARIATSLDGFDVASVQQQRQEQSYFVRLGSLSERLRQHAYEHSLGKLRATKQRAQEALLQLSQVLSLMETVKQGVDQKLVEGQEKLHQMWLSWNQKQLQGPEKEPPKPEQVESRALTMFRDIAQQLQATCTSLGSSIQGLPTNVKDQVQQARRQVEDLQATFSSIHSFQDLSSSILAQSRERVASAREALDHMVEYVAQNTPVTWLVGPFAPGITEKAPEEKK
Method: (§1) In vitro covalent fragment treatment for isoTOP-ABPP. All compounds were made up as solutions in DMSO (100×) and were used at a final concentration of 50 μM for activated esters and 100 μM for guanidinylating agents. For each profiling sample, 0.5 ml of lysate was treated with 5 μl of the 100× compound stock solution or 5 μl of DMSO. Samples were treated with activated esters for
(§2) STP-alkyne labeling and click chemistry. For concentration-dependent reactivity measurements by isoTOP-ABPP, 0.5 ml proteome aliquots were treated at ambient temperature with 1 mM STP-alkyne 1 (5 μl of 100 mM stock in DMSO) and 0.1 mM STP alkyne 1 (5 μl of 10 mM stock in DMSO), respectively. For competitive isoTOP-ABPP, after in vitro fragment treatment (detailed above), the samples were labeled for 1 h at ambient temperature with 0.1 mM STP-alkyne 1 (5 μl of 10 mM stock in DMSO). Samples were conjugated by copper-mediated azide-alkyne cycloaddition (CuAAC) to either the light (1 mM STP-alkyne or fragment treated) or heavy (0.1 mM STP-alkyne or DMSO treated) TEV tags (10 μl of 5 mM stocks in DMSO, final concentration=100 μM) using tris(2-carboxyethyl)phosphine hydrochloride
(§3) R value calculation and processing. The ratios of light and heavy MS1 peaks for each unique peptide were quantified with a CIMAGE software using default parameters (3 MS1 acquisitions per peak and signal to noise threshold set to 2.5). For reactivity measurements by isoTOP-ABPP, the R value was calculated from the ratio of MS1 peak areas, comparing the 1 mM STP alkyne sample (light TEV tag) with the 0.1 mM STP alkyne sample (heavy TEV tag). For competitive isoTOP-ABPP, the R value was calculated from the ratio of MS1 peak areas, comparing the DMSO treated sample (heavy TEV tag) with the compound treated sample (light TEV tag). […] Ratios for unique peptide entries are calculated for each experiment; overlapping peptides with the same modified lysine (for example, different charge states, MudPIT chromatographic steps or tryptic termini) are grouped together and the median ratio is reported as the final ratio (R). The peptide ratios reported by CIMAGE were further filtered to ensure the removal or correction of low-quality ratios in each individual data set. The quality filters applied were the following: removal of half tryptic peptides; for ratios with high standard deviations from the median (90% of the median or above) the lowest ratio was taken instead of the median; removal of peptides with R=20 and only a single MS2 event triggered during the elution of the parent ion; manual annotation of all the peptides with ratios of 20, removing any peptides with low quality elution profiles that remained after the previous curation steps (only done for competitive isoTOP-ABPP).
(§4) Cross-data processing for fragment screening. For compound treated samples, biological replicates of the same condition were averaged, if the standard deviation was below 60% of the mean; otherwise, for lysines with at least one R value <4 for a particular compound, the lowest value of the ratio set was taken. For lysines, where all R values for a particular compound were ≥4, the average was reported. For peptides containing several possible modified lysines, the lysine with the highest number of quantification events was used for analysis and the remaining, redundant peptides were reported as alternative modification sites. Peptides included in the aggregate dataset (those used for further bioinformatics and statistical analyses) were required to have been quantified in 2 experiments for competitive isoTOP-ABPP. Lysines were categorized as liganded, if they had at least one ratio R≥4 (hit fragments). For liganded lysines with R=20 for all liganding events, lysines were required to have been quantified with R=20 in two separate experiments and were further required to have been quantified with R<20 in one additional experiment.

[1] = biological target: T2, CPOX Coproporphyrinogen-III oxidase, mitochondrial (Homo sapiens, UniProt P36551); design: key to isoTOP-ABPP reactivity ratio at lysine P36551_K404: R = MS1 peak area ratio, DMSO (heavy) / compound-treated (light); conditions: for R value (DMSO/fragment) for probe 1 labeling: P36551_K404; for R value (DMSO/fragment) for probe 1 labeling / isoTOP-ABPP reactivity ratio at lysine P36551_K404 / isoTOP-ABPP ratio (R) at liganded lysine P36551_K404: 50 uM, in vitro; for R value (DMSO/fragment) for probe 1 labeling / isoTOP-ABPP reactivity ratio at lysine P36551_K404: 231 sol; for isoTOP-ABPP ratio (R) at liganded lysine P36551_K404: sol, 231
T2 construct: isoTOP-ABPP experiments performed in cell lysates (in vitro); endogenous in cells; host or cells: soluble proteome of human cancer cell lines (MDA-MB-231; Ramos and Jurkat also prepared)
T2 sequence (P36551 111-454): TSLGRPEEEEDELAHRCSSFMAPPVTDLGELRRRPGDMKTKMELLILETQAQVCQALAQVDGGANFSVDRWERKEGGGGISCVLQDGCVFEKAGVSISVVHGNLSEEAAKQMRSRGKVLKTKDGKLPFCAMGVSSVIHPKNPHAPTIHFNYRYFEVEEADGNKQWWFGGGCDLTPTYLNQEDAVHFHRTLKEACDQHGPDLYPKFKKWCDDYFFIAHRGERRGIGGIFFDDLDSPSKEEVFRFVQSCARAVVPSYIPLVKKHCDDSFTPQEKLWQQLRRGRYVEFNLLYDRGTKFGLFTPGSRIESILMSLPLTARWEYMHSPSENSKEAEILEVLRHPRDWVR
Method: as §1, §2, §3, §4

[2] = biological target: T3, ISOC2 Isochorismatase domain-containing protein 2, mitochondrial (Homo sapiens, UniProt Q96AB3); design: key to isoTOP-ABPP reactivity ratio at lysine Q96AB3_K178: R = MS1 peak area ratio, DMSO (heavy) / compound-treated (light); capped at 20; conditions: for R value (DMSO/fragment) for probe 1 labeling: Q96AB3_K178; for R value (DMSO/fragment) for probe 1 labeling / isoTOP-ABPP reactivity ratio at lysine Q96AB3_K178 / isoTOP-ABPP ratio (R) at liganded lysine Q96AB3_K178: 50 uM, in vitro; for R value (DMSO/fragment) for probe 1 labeling / isoTOP-ABPP reactivity ratio at lysine Q96AB3_K178: 231 sol; for isoTOP-ABPP ratio (R) at liganded lysine Q96AB3_K178: sol, 231
T3 construct: isoTOP-ABPP experiments performed in cell lysates (in vitro); endogenous in cells; host or cells: soluble proteome of human cancer cell lines (MDA-MB-231; Ramos and Jurkat also prepared)
T3 sequence (Q96AB3 1-205): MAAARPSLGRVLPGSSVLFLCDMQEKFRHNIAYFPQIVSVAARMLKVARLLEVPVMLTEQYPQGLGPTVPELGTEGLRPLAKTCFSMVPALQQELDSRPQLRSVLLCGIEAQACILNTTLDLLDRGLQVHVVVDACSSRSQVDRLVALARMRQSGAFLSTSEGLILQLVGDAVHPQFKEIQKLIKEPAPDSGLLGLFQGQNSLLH
Method: as §1, §2, §3, §4

For `O=C(CCc1cn(-c2ccccc2)nc1-c1ccccc1)Oc1c(F)c(F)c(F)c(F)c1F` [fragment 19, Pentafluorophenyl 3-(1,3-diphenyl-1H-pyrazol-4-yl)propanoate], which “R value (DMSO/fragment) for probe 1 labeling” value (“R value (DMSO/fragment)” below) (PLIN3 Perilipin-3; O60664_K140) is on record?
Its value is 1.5.

And the “R value (DMSO/fragment)” value (PLIN3 Perilipin-3; O60664_K257)?
The value was 2.2.

And the “R value (DMSO/fragment)” value [1]?
The value was 10.8.

And the “R value (DMSO/fragment)” value [2]?
The value was 1.2.

`O=C(Oc1c(F)c(F)c(F)c(F)c1F)C(c1ccccc1)c1ccccc1` [fragment 20, Pentafluorophenyl 2,2-diphenylacetate] was tested. Which “R value (DMSO/fragment)” value (PLIN3 Perilipin-3; O60664_K257) did it give?
The value was 2.5.

And the “R value (DMSO/fragment)” value [1]?
The value was 1.1.

And the “R value (DMSO/fragment)” value [2]?
The value was 0.9.

With `O=C(Oc1c(F)c(F)c(F)c(F)c1F)c1cc(C(F)(F)F)cc(C(F)(F)F)c1` [fragment 21, Pentafluorophenyl 3,5-bis(trifluoromethyl)benzoate] as the compound, how does the “R value (DMSO/fragment)” value (PLIN3 Perilipin-3; O60664_K257) read?
The value was 2.0.

What about the “R value (DMSO/fragment)” value [1] of the same compound?
Its value is 1.0.

What about the “R value (DMSO/fragment)” value [2] of the same compound?
Its value is 1.0.

`Cn1cc(CC(=O)Oc2c(F)c(F)c(F)c(F)c2F)c2ccccc21` [fragment 22, Pentafluorophenyl 2-(1-methyl-1H-indol-3-yl)acetate] was tested. Which “R value (DMSO/fragment)” value (PLIN3 Perilipin-3; O60664_K257) did it give?
Its value is 2.6.

And the “R value (DMSO/fragment)” value [1]?
The value was 1.1.

What about the “R value (DMSO/fragment)” value [2] of the same compound?
The value was 1.0.

How did the “R value (DMSO/fragment)” value [1] turn out when `COc1cc(CCC(=O)Oc2c(F)c(F)c(F)c(F)c2F)cc(OC)c1OC` [fragment 23, Pentafluorophenyl 3-(3,4,5-trimethoxyphenyl)propanoate] was run?
Its value is 1.3.

And the “R value (DMSO/fragment)” value [2]?
The value was 1.2.

What does the source list for `O=C(Oc1c(F)c(F)c(F)c(F)c1F)C1CCN(C(=O)OCc2ccccc2)CC1` [fragment 24, 1-Benzyl 4-(pentafluorophenyl) piperidine-1,4-dicarboxylate]?
isoTOP-ABPP reactivity ratio at lysine O60664_K140 (PLIN3 Perilipin-3): 1.7; isoTOP-ABPP reactivity ratio at lysine P36551_K404 [1]: 1.2

How did the “isoTOP-ABPP reactivity ratio at lysine P36551_K404” value [1] turn out when `O=C(Oc1c(F)c(F)c(F)c(F)c1F)c1ccc2ccccc2n1` [fragment 25, Pentafluorophenyl quinoline-2-carboxylate] was run?
The value was 1.3.

What about the “isoTOP-ABPP reactivity ratio at lysine Q96AB3_K178” value [2] of the same compound?
Its value is 1.4.

What does the source list for `O=C(CCc1coc2cc(F)ccc2c1=O)Oc1c(F)c(F)c(F)c(F)c1F` [fragment 26, Pentafluorophenyl 3-(7-fluoro-4-oxo-4H-chromen-3-yl)propanoate]?
isoTOP-ABPP reactivity ratio at lysine O60664_K140 (PLIN3 Perilipin-3): 1.2; isoTOP-ABPP reactivity ratio at lysine O60664_K257 (PLIN3 Perilipin-3): 4.1; isoTOP-ABPP reactivity ratio at lysine P36551_K404 [1]: 1.1

With `O=C(CN1C(=O)c2ccccc2C1=O)Oc1c(F)c(F)c(F)c(F)c1F` [fragment 27, Pentafluorophenyl 2-(1,3-dioxoisoindolin-2-yl)acetate] as the compound, how does the “isoTOP-ABPP reactivity ratio at lysine O60664_K140” value (PLIN3 Perilipin-3) read?
The value was 1.9.

What about the “isoTOP-ABPP reactivity ratio at lysine O60664_K257” value (PLIN3 Perilipin-3) of the same compound?
The value was 1.8.

And the “isoTOP-ABPP reactivity ratio at lysine P36551_K404” value [1]?
The value was 1.2.

And the “isoTOP-ABPP reactivity ratio at lysine Q96AB3_K178” value [2]?
Its value is 1.3.

What does the source list for `O=C(Oc1ccc([N+](=O)[O-])cc1[N+](=O)[O-])c1cc(C(F)(F)F)cc(C(F)(F)F)c1` [fragment 31, 2,4-Dinitrophenyl 3,5-bis(trifluoromethyl)benzoate]?
isoTOP-ABPP reactivity ratio at lysine P36551_K404 [1]: 1.1; isoTOP-ABPP reactivity ratio at lysine Q96AB3_K178 [2]: 2.1

What does the source list for `Cn1cc(CC(=O)Oc2ccc([N+](=O)[O-])cc2[N+](=O)[O-])c2ccccc21` [fragment 32, 2,4-Dinitrophenyl 2-(1-methyl-1H-indol-3-yl)acetate]?
isoTOP-ABPP reactivity ratio at lysine P36551_K404 [1]: 1.0; isoTOP-ABPP reactivity ratio at lysine Q96AB3_K178 [2]: 1.1

For `O=C(Oc1ccc([N+](=O)[O-])cc1[N+](=O)[O-])C1CCN(C(=O)OCc2ccccc2)CC1` [fragment 34, 1-Benzyl 4-(2,4-dinitrophenyl) piperidine-1,4-dicarboxylate], which “isoTOP-ABPP ratio (R) at liganded lysine P36551_K404” value [1] is on record?
The value was 1.1.

What about the “isoTOP-ABPP ratio (R) at liganded lysine Q96AB3_K178” value [2] of the same compound?
Its value is 1.1.

For `O=C(CC12CC3CC(CC(C3)C1)C2)Oc1ccc([N+](=O)[O-])cc1[N+](=O)[O-]` [fragment 38, 2,4-Dinitrophenyl 2-(adamantan-1-yl)acetate], which “isoTOP-ABPP ratio (R) at liganded lysine P36551_K404” value [1] is on record?
Its value is 1.0.

What about the “isoTOP-ABPP ratio (R) at liganded lysine Q96AB3_K178” value [2] of the same compound?
The value was 0.9.

Which “isoTOP-ABPP ratio (R) at liganded lysine P36551_K404” value [1] does the source give for `CC(=O)Oc1ccc([N+](=O)[O-])cc1[N+](=O)[O-]` [fragment 43, 2,4-Dinitrophenyl acetate] here?
The value was 1.1.

And the “isoTOP-ABPP ratio (R) at liganded lysine Q96AB3_K178” value [2]?
The value was 1.1.

What does the source list for `O=C(Oc1c(F)c(F)c(C(F)(F)F)c(F)c1F)c1cc(C(F)(F)F)cc(C(F)(F)F)c1` [fragment 47, 2,3,5,6-Tetrafluoro-4-(trifluoromethyl)phenyl 3,5-bis(trifluoromethyl)benzoate]?
isoTOP-ABPP ratio, lysine P36551_K404 ([1]; 50 uM_231_sol_in vitro): 1.5; isoTOP-ABPP ratio, lysine Q96AB3_K178 ([2]; 50 uM_231_sol_in vitro): 1.2
